From the supplement of paper PMC10307832

How the values were obtained:
Experiment in all cases: relative viability (nuclei count vs DMSO), 5 days (fraction); higher = more cells survive
BX 795 + Palbociclib = compound: O=C(NCCCNc1nc(Nc2cccc(NC(=O)N3CCCC3)c2)ncc1I)c1cccs1 [BX 795] + CC(=O)c1c(C)c2cnc(Nc3ccc(N4CCNCC4)cn3)nc2n(C2CCCC2)c1=O [Palbociclib] (partner 0.5 µM)
Summary of the method: (§1)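 Nuclei were stained with Hoechst during a one-step fixation (final 0.05% Triton X-100, 1% formaldehyde, 1 ug/ml Hoechst) carried out 5 days after dosing, then counted on 4× images. The cells, lung cancer lines in 1536-well plates, had been dosed by pin tool the day after seeding with one drug alone or a fixed anchor-drug dose plus five library-drug doses (not always all listed) in √10 steps. Relative viability is the nuclei count in treated wells divided by that in vehicle wells, and each value is the median of duplicate plates.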

BX 795 + Bortezomib = compound: O=C(NCCCNc1nc(Nc2cccc(NC(=O)N3CCCC3)c2)ncc1I)c1cccs1 [BX 795] + CC(C)C[C@H](NC(=O)[C@H](Cc1ccccc1)NC(=O)c1cnccn1)B(O)O [Bortezomib] (partner 0.002 µM)
Summary of the method: as §1

BX 795 + Alpelisib = compound: O=C(NCCCNc1nc(Nc2cccc(NC(=O)N3CCCC3)c2)ncc1I)c1cccs1 [BX 795] + Cc1nc(NC(=O)N2CCC[C@H]2C(N)=O)sc1-c1ccnc(C(C)(C)C(F)(F)F)c1 [Alpelisib] (partner 2 µM)
Summary of the method: as §1

BX 795 + Phenformin = compound: O=C(NCCCNc1nc(Nc2cccc(NC(=O)N3CCCC3)c2)ncc1I)c1cccs1 [BX 795] + N=C(N)NC(=N)NCCc1ccccc1 [Phenformin] (partner 250 µM)
Summary of the method: as §1

BX 795 + Pemetrexed = compound: O=C(NCCCNc1nc(Nc2cccc(NC(=O)N3CCCC3)c2)ncc1I)c1cccs1 [BX 795] + Nc1nc2[nH]cc(CCc3ccc(C(=O)N[C@@H](CCC(=O)O)C(=O)O)cc3)c2c(=O)[nH]1 [Pemetrexed] (partner 0.2 µM)
Summary of the method: as §1

Row | Cell Line | relative viability (BX 795 + Palbociclib; first compound 0.04 µM) | relative viability (BX 795 + Palbociclib; first compound 0.1265 µM) | relative viability (BX 795 + Palbociclib; first compound 0.4 µM) | relative viability (BX 795 + Palbociclib; first compound 1.265 µM) | relative viability (BX 795 + Bortezomib; first compound 0.04 µM) | relative viability (BX 795 + Bortezomib; first compound 0.1265 µM) | relative viability (BX 795 + Bortezomib; first compound 0.4 µM) | relative viability (BX 795 + Bortezomib; first compound 1.265 µM) | relative viability (BX 795 + Alpelisib; first compound 0.04 µM) | relative viability (BX 795 + Alpelisib; first compound 0.1265 µM) | relative viability (BX 795 + Alpelisib; first compound 0.4 µM) | relative viability (BX 795 + Alpelisib; first compound 1.265 µM) | relative viability (BX 795 + Phenformin; first compound 0.04 µM) | relative viability (BX 795 + Phenformin; first compound 0.1265 µM) | relative viability (BX 795 + Phenformin; first compound 0.4 µM) | relative viability (BX 795 + Phenformin; first compound 1.265 µM) | relative viability (BX 795 + Pemetrexed; first compound 0.04 µM) | relative viability (BX 795 + Pemetrexed; first compound 0.1265 µM) | relative viability (BX 795 + Pemetrexed; first compound 0.4 µM) | relative viability (BX 795 + Pemetrexed; first compound 1.265 µM)
1 | HCC-366 | 0.477 | 0.362 | 0.289 | 0.415 | 1.08 | 1.1 | 0.866 | 1.09 | 0.462 | 0.432 | 0.291 | 0.113 | 0.622 | 0.629 | 0.602 | 0.583 | 0.104 | 0.168 | 0.0915 | 0.149
2 | HCC-827 | 0.551 | 0.501 | 0.478 | 0.484 | 1.01 | 1.01 | 1.06 | 0.986 | 1.02 | 0.975 | 1.02 | 0.924 | 0.448 | 0.372 | 0.414 | 0.387 | 0.266 | 0.288 | 0.245 | 0.241
3 | HOP-62 | 0.471 | 0.465 | 0.502 | 0.47 | 0.51 | 0.59 | 0.615 | 0.682 | 0.901 | 0.643 | 1.24 | 1 | 0.711 | 0.744 | 0.789 | 0.667 | 0.303 | 0.284 | 0.296 | 0.306
4 | IA-LM | – | – | – | – | 0.655 | 0.841 | 0.974 | 0.54 | 0.844 | 0.636 | 0.614 | 0.666 | – | – | – | – | – | – | – | –
5 | LC-2-ad | 0.476 | 0.493 | 0.408 | 0.483 | 1.11 | 1.01 | 1.06 | 0.968 | 0.959 | 0.89 | 0.654 | 0.268 | 0.585 | 0.5 | 0.48 | 0.41 | 0.267 | 0.288 | 0.25 | 0.263
6 | LCLC-97TM1 | 0.22 | 0.201 | 0.314 | 0.208 | 0.563 | 0.527 | 0.954 | 0.417 | 0.236 | 0.229 | 0.393 | 0.155 | 0.495 | 0.444 | 0.457 | 0.348 | 0.152 | 0.184 | 0.177 | 0.184
7 | LCLC-103H | 0.441 | 0.511 | 0.529 | 0.445 | 1 | 1.1 | 1.15 | 0.911 | 0.944 | 1.1 | 1.05 | 1.01 | 0.301 | 0.327 | 0.355 | 0.298 | 0.432 | 0.429 | 0.407 | 0.452
8 | LK-2 | 0.83 | 0.862 | 0.635 | 0.559 | – | – | – | – | 1.1 | 1.07 | 0.952 | 1.03 | 0.501 | 0.485 | 0.503 | 0.444 | 0.277 | 0.237 | 0.269 | 0.24
9 | NCI-H358 | 0.132 | 0.134 | 0.131 | 0.107 | – | – | – | – | 0.95 | 0.642 | 0.822 | 0.281 | 0.296 | 0.319 | 0.257 | 0.117 | 0.167 | 0.168 | 0.134 | 0.123
